Data: ChEMBL document CHEMBL2146458, “Tanshinones as selective and slow-binding inhibitors for SARS-CoV cysteine proteases” (Bioorg Med Chem, 2012)
Active and inactive are the calls of the source. The rule behind the calls is not given here.

Tests used:
[1] = target: Replicase polyprotein 1a (Severe acute respiratory syndrome-related coronavirus) (UniProt P0C6U8); conditions: 200 uM
[2] = target: Replicase polyprotein 1a (Severe acute respiratory syndrome-related coronavirus) (UniProt P0C6U8)
[3] = target: Replicase polyprotein 1a (Severe acute respiratory syndrome-related coronavirus) (UniProt P0C6U8); remark: listed apart in the source
Replicase polyprotein 1a [4] = target: T1, Replicase polyprotein 1a (Severe acute respiratory syndrome-related coronavirus, UniProt P0C6U8); conditions: read-out: Ki(app)
Replicase polyprotein 1a [5] = target: T1, Replicase polyprotein 1a
[6] = target: Replicase polyprotein 1a (Severe acute respiratory syndrome-related coronavirus) (UniProt P0C6U8); remark: listed apart in the source
Protease = Protease (Human immunodeficiency virus 1, UniProt Q9YQ12); assay: Inhibition of Human immunodeficiency virus 1 protease preincubated for 10 mins by FRET assay
Papain = target: T2, Papain (Carica papaya, UniProt P00784); assay: Inhibition of papaya papain using N-alpha-benzoyl-L-arginine-pnitroanilide as substrate after 5 mins
T2 sequence (P00784 whole entry): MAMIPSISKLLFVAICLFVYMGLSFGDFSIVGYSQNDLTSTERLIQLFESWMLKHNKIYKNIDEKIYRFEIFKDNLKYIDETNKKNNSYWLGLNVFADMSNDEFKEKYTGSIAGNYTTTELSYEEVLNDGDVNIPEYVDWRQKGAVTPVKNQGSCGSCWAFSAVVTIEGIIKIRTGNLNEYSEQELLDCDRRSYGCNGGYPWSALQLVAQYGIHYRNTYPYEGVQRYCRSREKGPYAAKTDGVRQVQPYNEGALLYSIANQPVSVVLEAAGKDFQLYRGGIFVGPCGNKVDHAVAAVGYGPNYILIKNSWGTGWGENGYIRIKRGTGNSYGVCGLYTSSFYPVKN

Replicase polyprotein 1a [7] = target: T1, Replicase polyprotein 1a; remark: listed apart in the source
[8] = target: Replicase polyprotein 1a (Severe acute respiratory syndrome-related coronavirus) (UniProt P0C6U8); conditions: TDE = time-dependent effect
Replicase polyprotein 1a [9] = target: T1, Replicase polyprotein 1a; remark: listed apart in the source
Replicase polyprotein 1a [10] = target: T1, Replicase polyprotein 1a; remark: listed apart in the source
[11] = Inhibition of chymotrypsin using N-benzoyl-L-tyrosine ethyl ester as substrate assessed as benzoyl-tyrosine production measured every 10 seconds for 6 mins
[12] = target: Replicase polyprotein 1a (Severe acute respiratory syndrome-related coronavirus) (UniProt P0C6U8); conditions: 1 to 100 uM
[13] = target: Replicase polyprotein 1a (Severe acute respiratory syndrome-related coronavirus) (UniProt P0C6U8); remark: listed apart in the source
[14] = Inhibition of chymotrypsin using N-benzoyl-L-tyrosine ethyl ester as substrate assessed as benzoyl-tyrosine production at 200 uM measured every 10 seconds for 6 mins
Papain (Carica papaya) = target: T3, Papain (Carica papaya) (UniProt P00784); assay: Inhibition of papaya papain using N-alpha-benzoyl-L-arginine-pnitroanilide as substrate at 200 uM after 5 mins
T3 sequence (whole entry): T2 sequence (P00784 whole entry)

[15] = target: Replicase polyprotein 1a (Severe acute respiratory syndrome-related coronavirus) (UniProt P0C6U8); remark: listed apart in the source
[16] = target: Replicase polyprotein 1a (Severe acute respiratory syndrome-related coronavirus) (UniProt P0C6U8); conditions: 200 uM; remark: listed apart in the source
[17] = target: Replicase polyprotein 1a (Severe acute respiratory syndrome-related coronavirus) (UniProt P0C6U8); remark: listed apart in the source
[18] = target: Protease (Human immunodeficiency virus 1) (UniProt Q9YQ12); assay: Inhibition of Human immunodeficiency virus 1 protease at 200 uM preincubated for 10 mins by FRET assay
Sequence of Protease (Human immunodeficiency virus 1) (Q9YQ12 as listed by the source): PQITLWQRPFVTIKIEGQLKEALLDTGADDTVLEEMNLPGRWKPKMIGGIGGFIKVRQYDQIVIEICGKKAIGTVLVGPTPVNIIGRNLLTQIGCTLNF

Sequence of Protease (Q9YQ12 whole entry): as the sequence (Q9YQ12 as listed by the source) above

Structure (SMILES)	inhibition [3]	Ki (Replicase polyprotein 1a [4]) [µM]	IC50 (Replicase polyprotein 1a [5]) [µM]	inhibition [6]	IC50 (Protease) [µM]	IC50 (Papain) [µM]	IC50 (Replicase polyprotein 1a [7]) [µM]	inhibition [8]	IC50 (Replicase polyprotein 1a [9]) [µM]	IC50 (Replicase polyprotein 1a [10]) [µM]	IC50 [11] [µM]	inhibition [12]	inhibition [13]	inhibition (Papain (Carica papaya))	inhibition [15]	other results
O=C(/C=C/c1cc(O)cc2c1[C@H](C(O)O[C@H](Cc1ccc(O)c(O)c1)C(=O)O)[C@@H](c1ccc(O)c(O)c1)O2)O[C@H](Cc1ccc(O)c(O)c1)C(=O)O (some centres not stated)																inhibition [1]: 30%
C[C@H]1COC2=C1C(=O)C(=O)c1c2ccc2c1CCCC2(C)C [CRYPTOTANSHINONE]	Active	9	87.6	Active	69.6	89.8	0.8	tde	10.1	227	120					inhibition [2]: Dose-dependent effect
Cc1cccc2c3c(ccc12)C1=C(C(=O)C3=O)[C@@H](C)CO1 [DIHYDROTANSHINONE I]	Active	11.2	1.2	Active	50.6		4.9	tde	10.7	14.4		inactive	Active	inactive	Dose-dependent effect	inhibition [14]: inactive
COC(=O)[C@@]1(C)CCCc2c1ccc1c2C(=O)C(=O)c2c(C)coc2-1 [METHYL TANSHINONATE]	Active	9.7		Active	103		9.2	tde	10.6	21.1	124	inactive	Active	inactive	Dose-dependent effect	inhibition [16]: inactive
CC(C)C1=Cc2ccc3c(c2C(=O)C1=O)CCCC3(C)C [MILTIRONE]		21.5	60.2	Active	148	88	30	tde	78.9	21.1	139	inactive	Active		Dose-dependent effect	inhibition [17]: Active
Cc1coc2c1C(=O)C(=O)c1c-2ccc2c1CCCC2(C)C [TANSHINONE IIA]	Active	11.2		Active	59.2	122	1.6	tde	17.1	89.1	68.3	inactive	Active		Dose-dependent effect	inhibition [16]: inactive
Cc1coc2c1C(=O)C(=O)c1c-2ccc2c1CCCC2(C)CO (configuration not stated) [TANSHINONE IIB]	Active	21.6	52	Active			10.7	tde	18	24.8		inactive	Active	inactive	Dose-dependent effect	inhibition [14]: inactive; inhibition [18]: inactive
Cc1coc2c1C(=O)C(=O)c1c-2ccc2c(C)cccc12 [TANSHINONE I]	Active	13.7	0.7	Active	45.9		8.8	tde	11.5	38.7	103	inactive	Active	inactive	Dose-dependent effect	
